Test results published in ChEMBL document CHEMBL4507281, “Data for DCP probe BI-4394” (2021).

Experiments:
D(1B) dopamine receptor = D(1B) dopamine receptor (Homo sapiens, UniProt P21918); test: GPCRScan assay: inhibition of D5; design: radioligand conc. used [nm] 2.0 – 3.0, parental cells HEKT
[1] = biological target: AP2-associated protein kinase 1 (Homo sapiens) (UniProt Q2M2I8); conditions: Compound concentration 100.0 nM
[2] = test system: Tyrosine-protein kinase ABL1 (Homo sapiens), P00519 [H396P]; conditions: Compound concentration 100.0 nM
[3] = biological target: Tyrosine-protein kinase ABL1 (Homo sapiens) (UniProt P00519); conditions: Compound concentration 100.0 nM
[4] = biological target: Mitogen-activated protein kinase kinase kinase 5 (Homo sapiens) (UniProt Q99683); conditions: Compound concentration 100.0 nM
[5] = biological target: BMP-2-inducible protein kinase (Homo sapiens) (UniProt Q9NSY1); conditions: Compound concentration 100.0 nM
[6] = biological target: Bone morphogenetic protein receptor type-1B (Homo sapiens) (UniProt O00238); conditions: Compound concentration 100.0 nM
[7] = biological target: Bone morphogenetic protein receptor type-2 (Homo sapiens) (UniProt Q13873); conditions: Compound concentration 100.0 nM
[8] = biological target: Cyclin-dependent kinase 19 (Homo sapiens) (UniProt Q9BWU1); conditions: Compound concentration 100.0 nM
[9] = biological target: Serine/threonine-protein kinase DCLK3 (Homo sapiens) (UniProt Q9C098); conditions: Compound concentration 100.0 nM
[10] = biological target: Discoidin domain-containing receptor 2 (Homo sapiens) (UniProt Q16832); conditions: Compound concentration 100.0 nM
[11] = biological target: Mitogen-activated protein kinase kinase kinase 12 (Homo sapiens) (UniProt Q12852); conditions: Compound concentration 100.0 nM
[12] = test system: Epidermal growth factor receptor (Homo sapiens), P00533 [UNDEFINED MUTATION]; conditions: Compound concentration 100.0 nM
[13] = test system: Epidermal growth factor receptor (Homo sapiens), P00533 [UNDEFINED MUTATION]; conditions: Compound concentration 100.0 nM; remark: listed apart in the source
[14] = biological target: Ephrin type-A receptor 5 (Homo sapiens) (UniProt P54756); conditions: Compound concentration 100.0 nM
[15] = test system: Fibroblast growth factor receptor 3 (Homo sapiens), P22607 [G697C]; conditions: Compound concentration 100.0 nM
[16] = test system: Receptor-type tyrosine-protein kinase FLT3 (Homo sapiens), P36888 [D835V]; conditions: Compound concentration 100.0 nM
[17] = test system: Receptor-type tyrosine-protein kinase FLT3 (Homo sapiens), P36888 [D835Y]; conditions: Compound concentration 100.0 nM
[18] = biological target: Tyrosine-protein kinase FRK (Homo sapiens) (UniProt P42685); conditions: Compound concentration 100.0 nM
[19] = biological target: Mitogen-activated protein kinase 9 (Homo sapiens) (UniProt P45984); conditions: Compound concentration 100.0 nM
[20] = biological target: Serine/threonine-protein kinase LATS2 (Homo sapiens) (UniProt Q9NRM7); conditions: Compound concentration 100.0 nM
[21] = test system: Leucine-rich repeat serine/threonine-protein kinase 2 (Homo sapiens), Q5S007 [G2019S]; conditions: Compound concentration 100.0 nM
[22] = biological target: MAP kinase-interacting serine/threonine-protein kinase 2 (Homo sapiens) (UniProt Q9HBH9); conditions: Compound concentration 100.0 nM
[23] = biological target: Myosin light chain kinase (Homo sapiens) (UniProt Q32MK0); conditions: Compound concentration 100.0 nM
[24] = biological target: Serine/threonine-protein kinase MRCK beta (Homo sapiens) (UniProt Q9Y5S2); conditions: Compound concentration 100.0 nM
[25] = biological target: Muscle, skeletal receptor tyrosine-protein kinase (Homo sapiens) (UniProt O15146); conditions: Compound concentration 100.0 nM
[26] = biological target: Serine/threonine-protein kinase Nek6 (Homo sapiens) (UniProt Q9HC98); conditions: Compound concentration 100.0 nM
[27] = biological target: Mitogen-activated protein kinase 14 (Homo sapiens) (UniProt Q16539); conditions: Compound concentration 100.0 nM
[28] = biological target: Serine/threonine-protein kinase PAK 5 (Homo sapiens) (UniProt Q9P286); conditions: Compound concentration 100.0 nM
[29] = biological target: Cyclin-dependent kinase 16 (Homo sapiens) (UniProt Q00536); conditions: Compound concentration 100.0 nM
[30] = biological target: Cyclin-dependent kinase 18 (Homo sapiens) (UniProt Q07002); conditions: Compound concentration 100.0 nM
[31] = biological target: Phosphatidylinositol 5-phosphate 4-kinase type-2 beta (Homo sapiens) (UniProt P78356); conditions: Compound concentration 100.0 nM
[32] = biological target: Phosphatidylinositol 5-phosphate 4-kinase type-2 gamma (Homo sapiens) (UniProt Q8TBX8); conditions: Compound concentration 100.0 nM
[33] = biological target: cAMP-dependent protein kinase catalytic subunit alpha (Homo sapiens) (UniProt P17612); conditions: Compound concentration 100.0 nM
[34] = biological target: Ribosomal protein S6 kinase beta-1 (Homo sapiens) (UniProt P23443); conditions: Compound concentration 100.0 nM
[35] = biological target: SNF-related serine/threonine-protein kinase (Homo sapiens) (UniProt Q9NRH2); conditions: Compound concentration 100.0 nM
[36] = biological target: SRSF protein kinase 1 (Homo sapiens) (UniProt Q96SB4); conditions: Compound concentration 100.0 nM
[37] = biological target: Serine/threonine-protein kinase 16 (Homo sapiens) (UniProt O75716); conditions: Compound concentration 100.0 nM
[38] = biological target: Tyrosine-protein kinase Tec (Homo sapiens) (UniProt P42680); conditions: Compound concentration 100.0 nM
[39] = biological target: Serine/threonine-protein kinase tousled-like 2 (Homo sapiens) (UniProt Q86UE8); conditions: Compound concentration 100.0 nM
[40] = biological target: TRAF2 and NCK-interacting protein kinase (Homo sapiens) (UniProt Q9UKE5); conditions: Compound concentration 100.0 nM
[41] = biological target: Serine/threonine-protein kinase 32A (Homo sapiens) (UniProt Q8WU08); conditions: Compound concentration 100.0 nM
[42] = biological target: 5-hydroxytryptamine receptor 5A (Homo sapiens) (UniProt P47898); conditions: Compound concentration 10.0 uM
[43] = biological target: 5-hydroxytryptamine receptor 7 (Homo sapiens) (UniProt P34969); conditions: Compound concentration 10.0 uM
[44] = biological target: Muscarinic acetylcholine receptor M4 (Homo sapiens) (UniProt P08173); conditions: Compound concentration 10.0 uM

Sequence of Epidermal growth factor receptor (Homo sapiens), P00533 [UNDEFINED MUTATION] (P00533 whole entry, looked up, change not shown): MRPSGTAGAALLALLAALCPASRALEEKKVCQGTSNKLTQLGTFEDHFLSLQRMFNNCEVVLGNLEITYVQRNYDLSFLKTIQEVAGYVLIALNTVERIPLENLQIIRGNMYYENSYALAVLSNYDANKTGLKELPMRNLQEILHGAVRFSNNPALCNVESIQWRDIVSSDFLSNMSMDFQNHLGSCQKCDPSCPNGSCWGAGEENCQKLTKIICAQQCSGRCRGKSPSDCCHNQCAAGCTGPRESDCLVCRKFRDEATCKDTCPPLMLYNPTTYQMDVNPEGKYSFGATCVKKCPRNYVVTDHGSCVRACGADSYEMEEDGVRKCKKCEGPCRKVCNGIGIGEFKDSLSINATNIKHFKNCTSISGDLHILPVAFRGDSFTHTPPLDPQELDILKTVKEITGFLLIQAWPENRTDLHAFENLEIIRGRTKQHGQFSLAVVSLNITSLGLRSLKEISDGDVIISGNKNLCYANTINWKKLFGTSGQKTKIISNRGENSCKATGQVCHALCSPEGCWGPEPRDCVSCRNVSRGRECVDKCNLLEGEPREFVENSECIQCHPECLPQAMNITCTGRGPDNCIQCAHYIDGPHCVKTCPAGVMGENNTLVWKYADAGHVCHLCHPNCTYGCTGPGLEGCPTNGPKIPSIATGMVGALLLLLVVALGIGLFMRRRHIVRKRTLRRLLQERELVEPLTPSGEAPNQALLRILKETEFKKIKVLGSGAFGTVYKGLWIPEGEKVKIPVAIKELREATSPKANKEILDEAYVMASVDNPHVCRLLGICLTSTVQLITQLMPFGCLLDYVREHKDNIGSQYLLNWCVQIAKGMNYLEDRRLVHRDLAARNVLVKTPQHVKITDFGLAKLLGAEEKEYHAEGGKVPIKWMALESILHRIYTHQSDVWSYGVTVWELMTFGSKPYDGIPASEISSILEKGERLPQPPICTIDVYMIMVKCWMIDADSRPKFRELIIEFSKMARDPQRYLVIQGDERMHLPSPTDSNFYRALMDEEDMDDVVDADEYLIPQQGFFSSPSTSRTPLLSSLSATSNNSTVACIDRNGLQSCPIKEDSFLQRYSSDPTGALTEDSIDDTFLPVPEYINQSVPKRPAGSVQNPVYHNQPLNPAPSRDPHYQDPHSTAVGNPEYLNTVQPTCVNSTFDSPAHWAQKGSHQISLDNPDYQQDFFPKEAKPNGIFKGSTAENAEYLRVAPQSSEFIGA
Sequence of TRAF2 and NCK-interacting protein kinase (Homo sapiens) (Q9UKE5 whole entry, looked up): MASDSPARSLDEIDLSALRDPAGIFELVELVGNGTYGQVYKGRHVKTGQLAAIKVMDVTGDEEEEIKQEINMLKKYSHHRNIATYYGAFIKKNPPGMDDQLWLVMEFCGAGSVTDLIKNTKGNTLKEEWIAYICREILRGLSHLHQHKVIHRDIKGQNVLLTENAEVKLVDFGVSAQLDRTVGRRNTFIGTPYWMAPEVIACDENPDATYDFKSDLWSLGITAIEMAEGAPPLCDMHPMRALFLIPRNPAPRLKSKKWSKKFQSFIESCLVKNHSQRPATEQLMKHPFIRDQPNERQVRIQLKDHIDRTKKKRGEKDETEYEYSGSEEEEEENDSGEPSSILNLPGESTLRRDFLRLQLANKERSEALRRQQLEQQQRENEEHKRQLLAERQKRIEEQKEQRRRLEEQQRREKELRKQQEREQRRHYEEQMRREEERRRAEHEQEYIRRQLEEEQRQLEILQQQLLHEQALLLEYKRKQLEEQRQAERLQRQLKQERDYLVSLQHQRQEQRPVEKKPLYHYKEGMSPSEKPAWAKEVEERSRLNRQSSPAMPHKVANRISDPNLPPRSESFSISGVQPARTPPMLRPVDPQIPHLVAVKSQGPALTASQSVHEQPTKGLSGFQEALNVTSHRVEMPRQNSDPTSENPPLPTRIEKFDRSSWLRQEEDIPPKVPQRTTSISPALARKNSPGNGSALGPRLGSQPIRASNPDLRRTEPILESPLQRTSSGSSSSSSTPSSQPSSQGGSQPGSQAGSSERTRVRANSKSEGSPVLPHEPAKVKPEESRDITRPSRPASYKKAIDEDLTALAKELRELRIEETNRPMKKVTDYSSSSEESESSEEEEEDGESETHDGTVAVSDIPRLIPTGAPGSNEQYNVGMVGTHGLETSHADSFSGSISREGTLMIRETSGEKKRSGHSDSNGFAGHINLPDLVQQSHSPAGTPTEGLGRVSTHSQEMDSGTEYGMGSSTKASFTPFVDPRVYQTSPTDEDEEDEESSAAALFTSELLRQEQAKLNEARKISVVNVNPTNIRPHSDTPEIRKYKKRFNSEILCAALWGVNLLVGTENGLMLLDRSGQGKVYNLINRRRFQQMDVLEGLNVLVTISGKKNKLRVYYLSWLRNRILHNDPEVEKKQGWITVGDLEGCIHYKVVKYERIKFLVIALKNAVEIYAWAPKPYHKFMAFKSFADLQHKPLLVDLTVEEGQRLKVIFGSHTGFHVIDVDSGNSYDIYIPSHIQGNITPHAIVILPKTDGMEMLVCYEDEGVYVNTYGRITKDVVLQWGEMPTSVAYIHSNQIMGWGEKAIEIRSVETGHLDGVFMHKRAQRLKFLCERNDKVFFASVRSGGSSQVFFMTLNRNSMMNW
Sequence of Ephrin type-A receptor 5 (Homo sapiens) (P54756 whole entry): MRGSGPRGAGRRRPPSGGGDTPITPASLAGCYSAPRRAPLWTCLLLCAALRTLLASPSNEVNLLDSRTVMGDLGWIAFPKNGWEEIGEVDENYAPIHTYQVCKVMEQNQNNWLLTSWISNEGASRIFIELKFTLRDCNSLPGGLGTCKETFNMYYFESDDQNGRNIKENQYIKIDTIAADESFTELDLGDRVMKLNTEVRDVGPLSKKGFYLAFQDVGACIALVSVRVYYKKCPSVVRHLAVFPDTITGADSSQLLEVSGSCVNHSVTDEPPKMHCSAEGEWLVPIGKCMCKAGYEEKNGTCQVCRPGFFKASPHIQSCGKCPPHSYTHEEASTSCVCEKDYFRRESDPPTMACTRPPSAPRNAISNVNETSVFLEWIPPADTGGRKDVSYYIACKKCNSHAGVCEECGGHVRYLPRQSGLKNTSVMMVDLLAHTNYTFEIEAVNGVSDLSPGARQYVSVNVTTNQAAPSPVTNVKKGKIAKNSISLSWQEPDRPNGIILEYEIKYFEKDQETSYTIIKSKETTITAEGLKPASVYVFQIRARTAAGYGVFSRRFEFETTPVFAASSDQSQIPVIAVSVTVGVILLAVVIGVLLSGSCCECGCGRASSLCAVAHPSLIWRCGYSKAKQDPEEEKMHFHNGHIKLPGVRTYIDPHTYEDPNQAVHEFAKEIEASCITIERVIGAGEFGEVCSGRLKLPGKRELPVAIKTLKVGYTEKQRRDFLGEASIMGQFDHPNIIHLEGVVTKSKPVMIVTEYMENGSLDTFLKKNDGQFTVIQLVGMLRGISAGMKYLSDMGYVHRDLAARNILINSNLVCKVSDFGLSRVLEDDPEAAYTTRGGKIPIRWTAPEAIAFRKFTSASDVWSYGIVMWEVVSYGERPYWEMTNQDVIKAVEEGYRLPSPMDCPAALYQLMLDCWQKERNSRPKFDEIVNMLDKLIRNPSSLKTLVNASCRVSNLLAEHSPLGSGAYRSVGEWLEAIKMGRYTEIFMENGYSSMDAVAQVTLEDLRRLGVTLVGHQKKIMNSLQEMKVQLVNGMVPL
Sequence of Mitogen-activated protein kinase 9 (Homo sapiens) (P45984 whole entry, looked up): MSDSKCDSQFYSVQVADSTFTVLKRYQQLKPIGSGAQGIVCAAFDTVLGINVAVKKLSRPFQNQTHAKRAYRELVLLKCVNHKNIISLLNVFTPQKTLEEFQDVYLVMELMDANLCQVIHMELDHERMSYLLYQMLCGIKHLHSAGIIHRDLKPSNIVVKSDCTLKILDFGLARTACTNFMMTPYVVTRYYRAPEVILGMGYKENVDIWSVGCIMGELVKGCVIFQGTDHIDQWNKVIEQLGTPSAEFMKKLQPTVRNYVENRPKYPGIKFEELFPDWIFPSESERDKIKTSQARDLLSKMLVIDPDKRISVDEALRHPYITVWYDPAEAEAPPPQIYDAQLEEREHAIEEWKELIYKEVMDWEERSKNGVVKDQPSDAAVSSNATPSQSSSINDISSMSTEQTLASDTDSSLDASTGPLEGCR
Sequence of 5-hydroxytryptamine receptor 5A (Homo sapiens) (P47898 whole entry): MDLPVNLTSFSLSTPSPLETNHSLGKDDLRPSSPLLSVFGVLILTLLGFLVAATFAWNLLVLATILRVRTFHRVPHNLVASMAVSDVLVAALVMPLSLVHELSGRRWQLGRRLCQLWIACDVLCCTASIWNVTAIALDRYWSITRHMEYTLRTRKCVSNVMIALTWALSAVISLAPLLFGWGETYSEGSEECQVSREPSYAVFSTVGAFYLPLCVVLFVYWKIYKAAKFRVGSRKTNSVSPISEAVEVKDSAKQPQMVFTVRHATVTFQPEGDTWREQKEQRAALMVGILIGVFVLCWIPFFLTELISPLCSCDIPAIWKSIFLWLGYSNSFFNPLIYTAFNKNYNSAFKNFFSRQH
Sequence of Serine/threonine-protein kinase Nek6 (Homo sapiens) (Q9HC98 whole entry): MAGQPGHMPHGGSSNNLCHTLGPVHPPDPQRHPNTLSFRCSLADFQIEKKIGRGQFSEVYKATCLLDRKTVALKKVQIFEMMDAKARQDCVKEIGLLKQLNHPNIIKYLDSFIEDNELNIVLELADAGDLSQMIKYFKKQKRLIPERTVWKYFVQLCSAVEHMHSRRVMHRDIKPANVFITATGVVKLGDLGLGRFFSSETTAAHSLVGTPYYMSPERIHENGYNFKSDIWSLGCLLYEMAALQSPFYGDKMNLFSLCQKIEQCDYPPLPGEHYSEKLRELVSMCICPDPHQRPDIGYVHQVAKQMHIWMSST
Sequence of Mitogen-activated protein kinase 14 (Homo sapiens) (Q16539 whole entry): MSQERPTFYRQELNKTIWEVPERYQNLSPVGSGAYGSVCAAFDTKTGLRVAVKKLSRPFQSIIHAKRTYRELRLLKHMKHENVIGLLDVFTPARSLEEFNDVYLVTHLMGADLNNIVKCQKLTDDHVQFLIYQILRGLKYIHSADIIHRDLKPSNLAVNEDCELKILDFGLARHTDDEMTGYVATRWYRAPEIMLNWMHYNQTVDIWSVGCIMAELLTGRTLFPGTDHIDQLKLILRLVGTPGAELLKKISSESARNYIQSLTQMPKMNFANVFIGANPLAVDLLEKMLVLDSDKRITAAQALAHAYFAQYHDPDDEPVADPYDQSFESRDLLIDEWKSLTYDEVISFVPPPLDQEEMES

Cn1nc(C(=O)NCc2ccc(C(=O)O)cc2)cc1-c1ccc2[nH]ccc2c1 [BI 4395]
Ki (D(1B) dopamine receptor): 10 µM
residual activity [1]: 90%
residual activity [2]: 71%
residual activity [3]: 65%
residual activity [4]: 86%
residual activity [5]: 82%
residual activity [6]: 88%
residual activity [7]: 83%
residual activity [8]: 100%
residual activity [9]: 96%
residual activity [10]: 75%
residual activity [11]: 100%
residual activity [12]: 100%
residual activity [13]: 100%
residual activity [14]: 92%
residual activity [15]: 82%
residual activity [16]: 98%
residual activity [17]: 81%
residual activity [18]: 100%
residual activity [19]: 60%
residual activity [20]: 100%
residual activity [21]: 70%
residual activity [22]: 96%
residual activity [23]: 100%
residual activity [24]: 100%
residual activity [25]: 95%
residual activity [26]: 91%
residual activity [27]: 100%
residual activity [28]: 62%
residual activity [29]: 93%
residual activity [30]: 97%
residual activity [31]: 93%
residual activity [32]: 63%
residual activity [33]: 100%
residual activity [34]: 91%
residual activity [35]: 92%
residual activity [36]: 33%
residual activity [37]: 86%
residual activity [38]: 89%
residual activity [39]: 89%
residual activity [40]: 97%
residual activity [41]: 92%
inhibition [42]: 0.78%
inhibition [43]: -4.31%
inhibition [44]: 0.05%

CCOC(=O)c1cc2cc(-c3cc(C(=O)NCc4ccc(C(=O)O)cc4)nn3C)ccc2[nH]1 [BI 4394]
Ki (D(1B) dopamine receptor): 10 µM
residual activity [1]: 100%
residual activity [2]: 88%
residual activity [3]: 81%
residual activity [4]: 98%
residual activity [5]: 100%
residual activity [6]: 96%
residual activity [7]: 82%
residual activity [8]: 0%
residual activity [9]: 73%
residual activity [10]: 76%
residual activity [11]: 79%
residual activity [12]: 100%
residual activity [13]: 100%
residual activity [14]: 100%
residual activity [15]: 92%
residual activity [16]: 90%
residual activity [17]: 92%
residual activity [18]: 100%
residual activity [19]: 96%
residual activity [20]: 74%
residual activity [21]: 83%
residual activity [22]: 92%
residual activity [23]: 89%
residual activity [24]: 88%
residual activity [25]: 64%
residual activity [26]: 95%
residual activity [27]: 100%
residual activity [28]: 95%
residual activity [29]: 75%
residual activity [30]: 100%
residual activity [31]: 100%
residual activity [32]: 95%
residual activity [33]: 85%
residual activity [34]: 88%
residual activity [35]: 80%
residual activity [36]: 75%
residual activity [37]: 78%
residual activity [38]: 99%
residual activity [39]: 93%
residual activity [40]: 100%
residual activity [41]: 75%
inhibition [42]: 14.8%
inhibition [43]: 5.88%
inhibition [44]: -6.49%
